Reference: patent publication US8455688B2, “HDAC inhibitors” (Lixte Biotechnology, Inc., priority 2007, dated 2013)
In brackets after ≈: the same amount, converted by molar mass. Read-outs that look alike come from different tables or passages of the source.

How the values were obtained:
F. solani = test: Broth dilution antifungal susceptibility testing, F. solani; format: cell-based; details: Fusarium solani, 80% inhibition, read-out: minimum inhibitory concentration (MIC)
Protocol: (§1) A total of 23 isolates were tested to include 3 Candida albicans, 3 Candida glabrata, 3 Cryptococcus neoformans, 3 Aspergillus fumigatus, 3 Rhizopus oryzae, 3, Fusarium solani, 3 Pseudallescheria boydii, and 2 […]. All isolates were clinical isolates submitted to the Fungus Testing Laboratory for evaluation. Antifungal susceptibility testing was accomplished according to the methods outlined in the National Committee for Clinical Laboratory Standards, M-27A2, Reference Method for Broth Dilution Antifungal Susceptibility Testing of Yeasts; Approved Standard, and M38-A “Reference Method for Broth Dilution Antifungal Susceptibility Testing of Conidium-Forming Filamentous Fungi; Approved Standard”. This includes testing in RPMI-1640 with glutamine and without bicarbonate, an inoculum size of 0.5-2.5×10^3 for yeasts or […] for moulds, and incubation at 35° C. for 24 and 48 hours. […] Drug concentrations were 0.125-64 μg/ml. A 10 mg portion of each powder was weighed out and added to 1 ml of 100% DMSO for compound 205. The resulting concentration of […] was diluted to a working concentration of 6400 μg/ml for compound 205 in 100% DMSO. All subsequent dilutions were also made using the respective diluents. Final testing concentrations ranged from 0.125-64 μg/ml. The NCCLS recommended medium RPMI-1640 (Hardy Diagnostics, Santa Monica, Calif.) was utilized as the test medium. All isolates in this study were clinical isolates received in the Fungus Testing Laboratory for standard antifungal susceptibility testing and/or identification. Isolates, which were not sent for identification, were confirmed to assure testing integrity. A total of 23 were tested to include 3 Candida albicans, 3 Candida glabrata, 3 Cryptococcus neoformans, 3 Aspergillus fumigatus, 3 Rhizopus oryzae, 3, Fusarium solani, 3 Pseudallescheria boydii, and 2 […]. Minimum inhibitory concentrations (MIC) were determined at the first 24-hour interval where growth could be determined in the drug-free control tube.

T. rubrum = test: Broth dilution antifungal susceptibility testing, T. rubrum; format: cell-based, Trichophyton rubrum; details: Trichophyton rubrum, 80% inhibition, read-out: minimum inhibitory concentration (MIC)
Protocol: as §1

C. neoformans = test: Broth dilution antifungal susceptibility testing, C. neoformans; format: cell-based; details: Cryptococcus neoformans, 50% reduction in turbidity, read-out: minimum inhibitory concentration (MIC)
Protocol: as §1

C. albicans = test: Broth dilution antifungal susceptibility testing, C. albicans; format: cell-based, Candida albicans; details: Candida albicans, 50% reduction in turbidity, read-out: minimum inhibitory concentration (MIC)
Protocol: as §1

U87 GBM xenografts = test: Inhibition of U87 GBM xenografts; details: in vivo
A. fumigatus = test: Broth dilution antifungal susceptibility testing, A. fumigatus; format: cell-based, Aspergillus fumigatus; details: Aspergillus fumigatus, 80% inhibition, read-out: minimum inhibitory concentration (MIC)
Protocol: as §1

GBM xenograft = GBM xenograft tumor volume in SCID mice; format: in vivo; details: tumor cells implanted subcutaneously, 0, 7, 14, 21 and 28 days
R. arrhizus = test: Broth dilution antifungal susceptibility testing, R. arrhizus; format: cell-based, Rhizopus oryzae; details: Rhizopus arrhizus, 80% inhibition, read-out: minimum inhibitory concentration (MIC)
Protocol: as §1

cell line U-87 = test: Activity against the cell line U-87; format: cell-based, human; details: potency on an equimolar basis
C. glabrata = test: Broth dilution antifungal susceptibility testing, C. glabrata; format: cell-based, Candida glabrata; details: Nakaseomyces glabratus, 50% reduction in turbidity, read-out: minimum inhibitory concentration (MIC)
Protocol: as §1

CP Control = test: Broth dilution antifungal susceptibility testing, CP Control; format: cell-based; details: read-out: minimum inhibitory concentration (MIC)
Protocol: as §1

S. apiospermum = test: Broth dilution antifungal susceptibility testing, S. apiospermum; format: cell-based, Pseudallescheria boydii; details: Scedosporium apiospermum, 80% inhibition, read-out: minimum inhibitory concentration (MIC)
Protocol: as §1

- MIC (F. solani; 24 h, isolate 07-1399, 24 hours): > 64 µg/mL
- MIC (F. solani; 24 h, isolate 07-1755, 24 hours): > 64 µg/mL
- MIC (F. solani; 24 h, isolate 07-1867, 24 hours): 64 µg/mL (≈ 166 µM)
- MIC (F. solani; 48 h, isolate 07-1399, 48 hours): > 64 µg/mL
- MIC (F. solani; 48 h, isolate 07-1755, 48 hours): > 64 µg/mL
- MIC (F. solani; 48 h, isolate 07-1867, 48 hours): > 64 µg/mL
- MIC (T. rubrum; 24 h, isolate 07-1743, 24 hours): 0.25 µg/mL (≈ 0.648 µM)
- MIC (T. rubrum; 24 h, isolate 07-2055, 24 hours): 0.25 µg/mL (≈ 0.648 µM)
- MIC (T. rubrum; 48 h, isolate 07-1743, 48 hours): 0.25 µg/mL (≈ 0.648 µM)
- MIC (T. rubrum; 48 h, isolate 07-2055, 48 hours): 0.25 µg/mL (≈ 0.648 µM)
- MIC (C. neoformans; 24 h, isolate 07-2665, 24 hours): 16 µg/mL (≈ 41.5 µM)
- MIC (C. neoformans; 24 h, isolate 07-2737, 24 hours): 16 µg/mL (≈ 41.5 µM)
- MIC (C. neoformans; 24 h, isolate 07-2829, 24 hours): 64 µg/mL (≈ 166 µM)
- MIC (C. neoformans; 48 h, isolate 07-2665, 48 hours): 32 µg/mL (≈ 83 µM)
- MIC (C. neoformans; 48 h, isolate 07-2737, 48 hours): 32 µg/mL (≈ 83 µM)
- MIC (C. neoformans; 48 h, isolate 07-2829, 48 hours): 64 µg/mL (≈ 166 µM)
- MIC (C. albicans; 24 h, isolate 07-3006, 24 hours): 64 µg/mL (≈ 166 µM)
- MIC (C. albicans; 24 h, isolate 07-3011, 24 hours): 64 µg/mL (≈ 166 µM)
- MIC (C. albicans; 24 h, isolate 07-3012, 24 hours): > 64 µg/mL
- MIC (C. albicans; 48 h, isolate 07-3006, 48 hours): > 64 µg/mL
- MIC (C. albicans; 48 h, isolate 07-3011, 48 hours): > 64 µg/mL
- MIC (C. albicans; 48 h, isolate 07-3012, 48 hours): > 64 µg/mL
- MIC (A. fumigatus; 24 h, isolate 05-388, 24 hours): 16 µg/mL (≈ 41.5 µM)
- MIC (A. fumigatus; 24 h, isolate 06-4126, 24 hours): 8 µg/mL (≈ 20.8 µM)
- MIC (A. fumigatus; 24 h, isolate 07-2039, 24 hours): 8 µg/mL (≈ 20.8 µM)
- MIC (A. fumigatus; 48 h, isolate 05-388, 48 hours): > 64 µg/mL
- MIC (A. fumigatus; 48 h, isolate 06-4126, 48 hours): 64 µg/mL (≈ 166 µM)
- MIC (A. fumigatus; 48 h, isolate 07-2039, 48 hours): > 64 µg/mL
- MIC (R. arrhizus; 24 h, isolate 07-1870, 24 hours): 32 µg/mL (≈ 83 µM)
- MIC (R. arrhizus; 24 h, isolate 07-2044, 24 hours): 32 µg/mL (≈ 83 µM)
- MIC (R. arrhizus; 24 h, isolate 07-2078, 24 hours): > 64 µg/mL
- MIC (R. arrhizus; 48 h, isolate 07-1870, 48 hours): 64 µg/mL (≈ 166 µM)
- MIC (R. arrhizus; 48 h, isolate 07-2044, 48 hours): 64 µg/mL (≈ 166 µM)
- MIC (R. arrhizus; 48 h, isolate 07-2078, 48 hours): > 64 µg/mL
- MIC (C. glabrata; 24 h, isolate 07-2964, 24 hours): 32 µg/mL (≈ 83 µM)
- MIC (C. glabrata; 24 h, isolate 07-2965, 24 hours): 32 µg/mL (≈ 83 µM)
- MIC (C. glabrata; 24 h, isolate 07-3013, 24 hours): 32 µg/mL (≈ 83 µM)
- MIC (C. glabrata; 48 h, isolate 07-2964, 48 hours): > 64 µg/mL
- MIC (C. glabrata; 48 h, isolate 07-2965, 48 hours): > 64 µg/mL
- MIC (C. glabrata; 48 h, isolate 07-3013, 48 hours): > 64 µg/mL
- MIC (CP Control; 24 hours): 8 µg/mL (≈ 20.8 µM)
- MIC (CP Control; 48 hours): 64 µg/mL (≈ 166 µM)
- MIC (S. apiospermum; 24 h, isolate 07-1333, 24 hours): 1 µg/mL (≈ 2.59 µM)
- MIC (S. apiospermum; 24 h, isolate 07-1502, 24 hours): 8 µg/mL (≈ 20.8 µM)
- MIC (S. apiospermum; 24 h, isolate 07-1601, 24 hours): 2 µg/mL (≈ 5.19 µM)
- MIC (S. apiospermum; 48 h, isolate 07-1333, 48 hours): 2 µg/mL (≈ 5.19 µM)
- MIC (S. apiospermum; 48 h, isolate 07-1502, 48 hours): 16 µg/mL (≈ 41.5 µM)
- MIC (S. apiospermum; 48 h, isolate 07-1601, 48 hours): 2 µg/mL (≈ 5.19 µM)
SMILES: CN(C)c1ccc(NC(=O)CCCCCNC(=O)c2ccccc2S)cc1 [Compound 206, 2-Mercapto-N-[5-(4-dimethylamino-3-yl-carbamoyl)pentyl]benzamide]
- inhibition of U87 GBM xenografts compared to control (U87 GBM xenografts): significant inhibition
- inhibition of GBM xenograft tumor volume (GBM xenograft): inhibited the growth of GBM xenograft tumor volume
- activity against the cell line U-87 (cell line U-87): most potent on an equimolar basis
